Assay results reported in patent US20080114007A1 (priority 2006, published 2008).

The molecules below were run against CSF-1R (Homo sapiens, UniProt P07333) (assay: Peptide (non-phosphorylated) assay, fluorescence polarization competition immunoassay). Settings: 0.7 nM CSF-1R, 308 μM SYEGNSYTFIDPTQ peptide, 1 mM ATP, 80 min; mean of at least three determinations; read-out: c-fms Peptide IC50.
Format: biochemical
Procedure: The kinase reaction was initiated by adding 1 μL of 10 mM ATP in assay buffer. […] Positive and negative control wells were included on each plate, where 4% DMSO in assay buffer was substituted for the compound; in addition, positive control wells received 1.2 μL of 50 mM EDTA before the start of the reaction.
The plates were covered and incubated at room temperature for 80 min. Reactions were stopped by addition of 1.2 μL of 50 mM EDTA. Each well then received 10 μL of a 1:1:3 mixture of 10× anti-phosphotyrosine antibody, 10×PTK green tracer, and FP dilution buffer, respectively (Cat. # P2837, Invitrogen, Carlsbad, Calif.). The plates were covered, incubated for 30 min at room temperature, and the fluorescence polarization was read on an Analyst plate reader (Molecular Devices).

Chain of CSF-1R (P07333 20-972): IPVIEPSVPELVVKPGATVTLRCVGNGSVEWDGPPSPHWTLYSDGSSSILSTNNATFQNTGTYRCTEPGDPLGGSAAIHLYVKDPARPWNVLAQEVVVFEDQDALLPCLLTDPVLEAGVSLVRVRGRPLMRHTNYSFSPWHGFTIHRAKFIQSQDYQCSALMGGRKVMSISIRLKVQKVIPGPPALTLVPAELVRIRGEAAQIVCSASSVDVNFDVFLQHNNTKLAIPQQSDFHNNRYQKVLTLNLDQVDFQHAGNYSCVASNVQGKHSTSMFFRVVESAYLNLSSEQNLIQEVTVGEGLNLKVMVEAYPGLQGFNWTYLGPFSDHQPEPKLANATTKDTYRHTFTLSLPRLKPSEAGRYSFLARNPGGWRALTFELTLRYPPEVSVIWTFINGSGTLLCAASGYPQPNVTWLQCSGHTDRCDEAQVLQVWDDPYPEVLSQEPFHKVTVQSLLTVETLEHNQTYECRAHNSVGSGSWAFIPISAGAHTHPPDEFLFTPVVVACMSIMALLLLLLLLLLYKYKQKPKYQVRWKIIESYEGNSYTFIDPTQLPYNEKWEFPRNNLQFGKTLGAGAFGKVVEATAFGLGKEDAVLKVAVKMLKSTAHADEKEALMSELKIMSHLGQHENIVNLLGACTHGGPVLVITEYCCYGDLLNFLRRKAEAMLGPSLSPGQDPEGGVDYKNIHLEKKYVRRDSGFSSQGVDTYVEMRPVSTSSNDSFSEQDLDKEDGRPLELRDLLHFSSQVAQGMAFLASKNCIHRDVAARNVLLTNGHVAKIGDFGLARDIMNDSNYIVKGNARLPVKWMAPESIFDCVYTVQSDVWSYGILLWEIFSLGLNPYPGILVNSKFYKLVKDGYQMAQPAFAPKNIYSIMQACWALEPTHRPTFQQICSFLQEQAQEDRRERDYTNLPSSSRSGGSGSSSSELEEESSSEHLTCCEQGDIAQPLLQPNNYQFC

Compound	IC50 [nM]
CONC(=O)c1cn(C2CCCC2)c2nc(Nc3ccc(C(=O)N4CCCC4)cc3)ncc2c1=O [Cpd 36, 8-cyclopentyl-5-oxo-2-[4-(pyrrolidine-1-carbonyl)-phenylamino]-5,8-dihydro-pyrido[2,3-d]pyrimidine-6-carboxylic acid methoxy-amide]	2.1
O=C(c1cn(C2CCCC2)c2nc(Nc3ccc(CCN4CCCC4)cc3)ncc2c1=O)N1CCOCC1 [Cpd 42, 8-cyclopentyl-6-(morpholine-4-carbonyl)-2-[4-(2-pyrrolidin-1-yl-ethyl)-phenylamino]-8H-pyrido[2,3-d]pyrimidin-5-one]	57
CONC(=O)c1cn(-c2ccc3c(c2)CCC3)c2nc(Nc3ccc(Cc4nnn[nH]4)cc3)ncc2c1=O [Cpd 91, 8-indan-5-yl-5-oxo-2-[4-(1H-tetrazol-5-ylmethyl)-phenylamino]-5,8-dihydro-pyrido[2,3-d]pyrimidine-6-carboxylic acid methoxy-amide]	2
CONC(=O)c1cn(-c2ccc3c(c2)CCC3)c2nc(Nc3ccc(CCN4CCN(CC(F)(F)F)CC4)cc3)ncc2c1=O [Cpd 149, 8-indan-5-yl-5-oxo-2-(4-{2-[4-(2,2,2-trifluoro-ethyl)-piperazin-1-yl]-ethyl}-phenylamino)-5,8-dihydro-pyrido[2,3-d]pyrimidine-6-carboxylic acid methoxy-amide]	2.6
CCONC(=O)c1cn(-c2ccc3c(c2)CCC3)c2nc(Nc3ccc(CCN4CCCC4=O)cc3)ncc2c1=O [Cpd 135, 8-indan-5-yl-5-oxo-2-{4-[2-(2-oxo-pyrrolidin-1-yl)-ethyl]-phenylamino}-5,8-dihydro-pyrido[2,3-d]pyrimidine-6-carboxylic acid ethoxy-amide]	66
CONC(=O)c1cn(-c2ccc(OC(F)(F)F)cc2)c2nc(Nc3ccc(C4CCN(S(N)(=O)=O)CC4)cc3)ncc2c1=O [Cpd 177, 5-oxo-2-[4-(1-sulfamoyl-piperidin-4-yl)-phenylamino]-8-(4-trifluoromethoxyphenyl)-5,8-dihydropyrido[2,3-d]pyrimidine-6-carboxylic acid methoxy-amide]	6.6
NC(=O)c1cn(-c2ccc3c(c2)CCC3)c2nc(Nc3cccc(C(=O)N4CCOCC4)c3)ncc2c1=O [Cpd 120, 8-indan-5-yl-2-[3-(morpholine-4-carbonyl)-phenylamino]-5-oxo-5,8-dihydro-pyrido[2,3-d]pyrimidine-6-carboxylic acid amide]	17

Now those with a lower IC50, led by results:

IC50 [nM]	Compound
1.2	CCOC(=O)CN1CCC(c2ccc(Nc3ncc4c(=O)c(C(=O)NOC)cn(-c5ccc6c(c5)CCC6)c4n3)cc2)CC1 [Cpd 218, {4-[4-(8-indan-5-yl-6-methoxycarbamoyl-5-oxo-5,8-dihydro-pyrido[2,3-d]pyrimidin-2-ylamino)-phenyl]-piperidin-1-yl}-acetic acid ethyl ester]
0.71	CNCCS(=O)(=O)c1cccc(Nc2ncc3c(=O)c(C(=O)NOC)cn(-c4ccc5c(c4)CCC5)c3n2)c1 [Cpd 231, 8-indan-5-yl-2-[3-(2-methylamino-ethanesulfonyl)-phenylamino]-5-oxo-5,8-dihydro-pyrido[2,3-d]pyrimidine-6-carboxylic acid methoxy-amide]
0.58	CCc1ccc(-n2cc(C(=O)NOC)c(=O)c3cnc(Nc4ccc(CCN5CCNC(=O)C5)cc4)nc32)cc1 [Cpd 224, 8-(4-ethyl-phenyl)-5-oxo-2-{4-[2-(3-oxo-piperazin-1-yl)-ethyl]-phenylamino}-5,8-dihydro-pyrido[2,3-d]pyrimidine-6-carboxylic acid methoxy-amide]
0.44	CONC(=O)c1cn(-c2ccc3c(c2)CCC3)c2nc(Nc3cccc(C4(O)CCNC4)c3)ncc2c1=O (centres unmarked) [Cpd 274, 2-[3-(3-hydroxy-pyrrolidin-3-yl)-phenylamino]-8-indan-5-yl-5-oxo-5,8-dihydro-pyrido[2,3-d]pyrimidine-6-carboxylic acid methoxy-amide]
